Reference: patent US20210403415A1, “COMPOUNDS AND METHODS TO ATTENUATE TUMOR PROGRESSION AND METASTASIS” (THE TRUSTEES OF INDIANA UNIVERSITY, priority 2018, published 2021)

Assays:
[1] = biological target: T1, GST-TEAD4 (Homo sapiens, UniProt Q15561); assay: Size-exclusion chromatography for protein aggregation; details: 100 μM, 24 h at 4° C.
T1 construct: TEAD4 (217-434), TEAD4 (217-434) Cys367Ser mutant and Yap1 (Full-length) were expressed as GST-fusion proteins; made in house; host or cells: E. coli BL-21 (DE3), pGEX-6P-1
Protocol: 2 ml of 6.3 μM GST-TEAD4 in PBS was incubated with 100 μM 2 compound 2 in 2% v/v DMSO or DMSO without compound for 24 h at 4° C. After the incubation, the samples were injected into a HiLoad 26/600 Superdex 200 pg SEC column, pre-equilibrated with PBS. The elution profile of the column was analyzed for protein aggregation.

[2] = tested on: CTGF transcript levels; assay: qRT-PCR of CTGF transcript in HEK293 cells; type: cell-based; details: HEK293, 48 h
Protocol: HEK293 cells co-transfected the Flag-YAP and myc-TEAD4 constructs were incubated with DMSO or the indicated amount of compounds for 48 h. Total RNA was purified using the RNeasy plus mini kit (QIAGEN, Hilden, Germany) according to the manufacturer's instructions. Complementary DNA was synthesized from 500 ng total RNA with Oligo-dT primers and the Multi-Scribe reverse transcriptase (Fisher, Waltham, Mass.) according to the manufacturer's instructions.
Real-time PCR reactions utilized 100 ng cDNA, 200 nM gene specific primers and the Sensifast No-ROX mix (Bioline, Taunton, Mass.) in a total volume of 20 μl. All measurements were carried out in triplicate using an Eppendorf Mastercycler® RealPlex2. The sequences of primers for CTGF were forward, 5′-TTGGCCCAGACCCAACTA-3 (SEQ ID NO: 1); and reverse, 5′-GCAGGAGGCGTTGTCATT-3′ (SEQ ID. NO: 2). The primer sequences for (3-actin were forward, 5′-TTGGCAATGAGCGGTTCC-3 (SEQ ID NO: 3); and reverse, 5′-[…]-3′ (SEQ ID NO: 4).

[3] = tested on: patient-derived GBM43 glioblastoma spheroids; assay: GBM43 spheroid viability (Alamar blue); type: cell-based, human; details: for cytotoxicity at 10 µM: Homo sapiens, GBM43 cell, read-out: inhibition of GBM43 cell viability; for effect on GBM43 cancer cell viability / growth: three-dimensional spheroids
Protocol: Early-passage GBM43 cells were cultured in ultralow adherence plates (Corning Inc.) at 1 to 2×10^3 cells/mL in DMEM supplemented with 1% […] (Invitrogen), 2% B27 (Invitrogen), 25 ng/mL epidermal growth factor (EGF, 25 ng/mL fibroblast growth factor (FGF) (R&D Systems, Inc.), […], 2 ng/mL platelet growth factor, and 100 ng/mL each of penicillin and streptomycin (Invitrogen Inc.). Individual cells were recovered from spheres by incubation with Accutase (Sigma-Aldrich) for 10-15 minutes. Cells (50-100/well) were then seeded in fresh sphere-forming media in 96-well plates. After 2-3 days, Neurospheres containing 6 to 8 cells were treated with compounds 1, 2, and 5.
HEK-293 were cultured in DMEM with glutamine (Cellgro, Manassas, Va.) supplemented with 10% FBS and 1% penicillin/streptomycin in a 5% CO2 atmosphere at 37° C. Tumors were expanded by passage in the flank of NOD/SCIDγnull mice. To generate GBM43 cell lines, tumors were harvested, disaggregated, and maintained in 2.5% FBS for 14 days on Matrigel-coated plates (BD Biosciences) to remove murine fibroblasts. In-vitro GBM43 cell lines were propagated in DMEM with 10% FBS for no more than 7 passages. Cell line identity was confirmed by DNA fingerprint analysis (IDEXX BioResearch) for species and baseline short-tandem repeat analysis testing. GBM43 spheroids were generated by plating early-passage cells at 2.5×10^4 cells per well in 96-well ultralow attachment plates (Corning Inc.) in DMEM/F12 (1:1; GIBCO) supplemented with 2% B27 supplement (GIBCO), 20 ng/mL epidermal growth factor (EGF), and 20 ng/mL fibroblast growth factor (FGF) (Peprotech) for 2 days. The spheroids were then treated with compounds 1, 2, and 5 and growth analyzed by Alamar blue staining.

[4] = tested on: CTGF transcript levels; assay: qRT-PCR of CTGF transcript in GBM43 cells; type: cell-based, human; details: FIG. 8C
[5] = biological target: TEAD4.Yap1 interaction (Homo sapiens, UniProt Q15561); assay: Fluorescence polarization, GST-TEAD4 with FAM-Yap60-99 peptide; type: binding; parameters: TEAD4 (217-434), TEAD4 (217-434) Cys367Ser mutant and Yap1 (Full-length) were expressed as GST-fusion proteins; made in house; host or cells: E. coli BL-21 (DE3), pGEX-6P-1; details: for inhibition / maximum inhibition of TEAD4.Yap1 interaction: 24 h incubation at 4° C.; for t1/2^∞ (half-life of inactivation): corresponding to kinact
Protocol: GST-TEAD4, GST-TEAD4 Cys367Ser mutant or HIS-TEAD2 interaction with Yap1 was investigated using a fluorescently-labeled peptide (FAM-Yap60-99), consisting of FAM-labeled TEAD-binding peptide fragment of Yap1 (FAM-[…] TVPMCLRKLPASFCKPP), which has a disulfide bridge (American Peptide, Sunnyvale, Calif.). Addition of FAM-Yap60-99 to the TEAD was followed by measurement of changes in polarization. 40 μL of 125 nM GST-TEAD4 WT or GST-TEAD4 Cys367Ser in assay buffer (PBS with 0.01% v/v Triton-X100) or 40 μL of 64 nM HIS-TEAD2 was added to a 384-well black polystyrene plate (Cat. No. 262260; Nunc, Roskilde, Denmark) and incubated with 5 μL of […] serially diluted compounds in assay buffer supplemented with 20% v/v DMSO for 24 h at 4° C. Finally, 5 μL of 160 nM FAM-Yap60-99 peptide was added, the plate centrifuged, and the polarization was measured on an Envision Multilabel Plate Reader (PerkinElmer, Waltham, Mass.) using a filter set with excitation and emission wavelengths of 485 and 535 nm, respectively. Percent inhibition was calculated as relative to a minimum inhibition control, which is without compound, and a maximum inhibition control, which is without a TEAD.
For the determination of the inhibition efficiency kinact/K1, the protein compound incubation time was varied between […], prior to the addition of the FAM-Yap60-99 peptide and fluorescence polarization measurements. The progressive decrease in TEAD activities were plotted against time for all 10 concentrations ([…]) of the compounds and the observed rate of inhibition (kobs) was calculated by fitting a simple exponential function.
The observed rate of inhibition was then plotted against the concentration of the compound and a […] function kobs=kinact[Inhibitor]/K1+[Inhibitor] was fitted to determine the kinact and K1 values.

TEAD4.Yap1 interaction, sequence (Q15561 217-434): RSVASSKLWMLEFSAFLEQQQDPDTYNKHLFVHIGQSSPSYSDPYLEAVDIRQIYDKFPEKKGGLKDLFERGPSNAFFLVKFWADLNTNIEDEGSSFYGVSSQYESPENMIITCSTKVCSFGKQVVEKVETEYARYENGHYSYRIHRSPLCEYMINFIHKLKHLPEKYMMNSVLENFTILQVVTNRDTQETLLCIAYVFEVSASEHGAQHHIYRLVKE
T1 sequence (Q15561 217-434): as above

Structure (SMILES)	aggregation of GST-TEAD4 [1]	CTGF transcript levels versus control cells [2]	cytotoxicity at 10 µM [3] [%]	effect on GBM43 cancer cell viability / growth [3]	CTGF transcript levels versus vehicle [4]	reversibility of inhibition after dialysis ([5]; 50 μM, 24 h at 4° C., then dialyzed against buffer 24 h at 4° C.)	inhibition / maximum inhibition of TEAD4.Yap1 interaction [5] [%]	maximum inhibition of TEAD4 ([5]; 48 h incubation at 4° C.) [%]	t1/2^∞ (half-life of inactivation) [5] [h]
O=C(CCl)c1ccccc1Nc1cccc(C(F)(F)F)c1 [Compound 2, 2-chloro-1-(2-((3-(trifluoromethyl)phenyl)amino)phenyl)ethanone]	No significant aggregation	significant reduction	30	inhibited GBM43 cancer cell viability	suppressed CTGF transcript levels	irreversible inhibitor	53	80	18.2
O=C(CCl)c1ncccc1Nc1cccc(C(F)(F)F)c1 [Compound 5, 2-chloro-1-(3-((3-(trifluoromethyl)phenyl)amino)pyridin-2-yl)ethanone]	–	significant reduction	30	inhibited GBM43 cancer cell viability	suppressed CTGF transcript levels	–	81	–	14.3
